Values joined by “and” are separate entries in the source; they are usually repeats but may differ in a detail not shown here. Identical values can stand only once.

The text below walks through data of BindingDB's records for doi:10.1038/nchembio.2007.16 (Eisai Co., Ltd, 2007).

Experiment [1] addresses T1, Splicing factor 3B subunit 3 (Homo sapiens, UniProt Q15393).
T1 sequence (Q15393 whole entry): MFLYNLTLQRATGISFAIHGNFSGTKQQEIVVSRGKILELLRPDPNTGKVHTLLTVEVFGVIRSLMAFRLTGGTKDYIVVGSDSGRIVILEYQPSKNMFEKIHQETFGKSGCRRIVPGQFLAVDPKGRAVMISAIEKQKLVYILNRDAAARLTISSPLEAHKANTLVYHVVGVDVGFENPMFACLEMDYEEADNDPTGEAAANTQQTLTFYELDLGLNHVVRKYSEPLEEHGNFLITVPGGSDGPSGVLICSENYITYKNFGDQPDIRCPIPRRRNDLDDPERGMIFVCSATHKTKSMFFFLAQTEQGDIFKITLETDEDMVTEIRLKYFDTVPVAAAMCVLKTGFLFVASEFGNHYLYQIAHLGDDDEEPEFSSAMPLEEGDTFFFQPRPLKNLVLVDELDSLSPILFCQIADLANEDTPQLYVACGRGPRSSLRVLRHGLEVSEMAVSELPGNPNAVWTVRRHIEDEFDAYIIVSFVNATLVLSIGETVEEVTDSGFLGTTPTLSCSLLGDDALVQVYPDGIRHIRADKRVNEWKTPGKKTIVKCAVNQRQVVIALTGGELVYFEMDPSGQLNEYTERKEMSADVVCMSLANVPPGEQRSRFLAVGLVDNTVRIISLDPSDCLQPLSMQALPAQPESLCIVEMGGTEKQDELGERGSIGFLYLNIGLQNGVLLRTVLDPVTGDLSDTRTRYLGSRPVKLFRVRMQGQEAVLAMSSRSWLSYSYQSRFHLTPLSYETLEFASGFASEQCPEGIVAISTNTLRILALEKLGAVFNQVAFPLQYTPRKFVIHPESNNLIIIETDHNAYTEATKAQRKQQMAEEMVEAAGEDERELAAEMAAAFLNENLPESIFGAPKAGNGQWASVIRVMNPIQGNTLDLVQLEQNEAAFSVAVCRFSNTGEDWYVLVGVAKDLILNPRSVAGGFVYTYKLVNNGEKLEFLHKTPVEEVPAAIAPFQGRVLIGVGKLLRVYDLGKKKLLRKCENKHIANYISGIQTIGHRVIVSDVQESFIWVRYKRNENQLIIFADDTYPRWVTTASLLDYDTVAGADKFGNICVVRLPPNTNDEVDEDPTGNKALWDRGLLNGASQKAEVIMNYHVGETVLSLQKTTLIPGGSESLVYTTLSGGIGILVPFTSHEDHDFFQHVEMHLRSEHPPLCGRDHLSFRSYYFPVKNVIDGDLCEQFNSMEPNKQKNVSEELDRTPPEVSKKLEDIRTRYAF
In words: WiDr. Particulars: pH 7.8; 4 °C. The text has this:
Cell proliferation assay using WiDr

The target in experiment [2] is Splicing factor 3B subunit 1 / PHD finger-like domain-containing protein 5A (Homo sapiens, UniProt O75533+Q7RTV0). In words: VEGF-PLAP. Particulars: pH 7.8; 4 °C. The source says: Placental alkaline phosphatase (PLAP) reporter assay controlled by VEGF promoter (VEGF-PLAP)
Sequence of Splicing factor 3B subunit 1 / PHD finger-like domain-containing protein 5A (O75533 whole entry, the tested form may be a part): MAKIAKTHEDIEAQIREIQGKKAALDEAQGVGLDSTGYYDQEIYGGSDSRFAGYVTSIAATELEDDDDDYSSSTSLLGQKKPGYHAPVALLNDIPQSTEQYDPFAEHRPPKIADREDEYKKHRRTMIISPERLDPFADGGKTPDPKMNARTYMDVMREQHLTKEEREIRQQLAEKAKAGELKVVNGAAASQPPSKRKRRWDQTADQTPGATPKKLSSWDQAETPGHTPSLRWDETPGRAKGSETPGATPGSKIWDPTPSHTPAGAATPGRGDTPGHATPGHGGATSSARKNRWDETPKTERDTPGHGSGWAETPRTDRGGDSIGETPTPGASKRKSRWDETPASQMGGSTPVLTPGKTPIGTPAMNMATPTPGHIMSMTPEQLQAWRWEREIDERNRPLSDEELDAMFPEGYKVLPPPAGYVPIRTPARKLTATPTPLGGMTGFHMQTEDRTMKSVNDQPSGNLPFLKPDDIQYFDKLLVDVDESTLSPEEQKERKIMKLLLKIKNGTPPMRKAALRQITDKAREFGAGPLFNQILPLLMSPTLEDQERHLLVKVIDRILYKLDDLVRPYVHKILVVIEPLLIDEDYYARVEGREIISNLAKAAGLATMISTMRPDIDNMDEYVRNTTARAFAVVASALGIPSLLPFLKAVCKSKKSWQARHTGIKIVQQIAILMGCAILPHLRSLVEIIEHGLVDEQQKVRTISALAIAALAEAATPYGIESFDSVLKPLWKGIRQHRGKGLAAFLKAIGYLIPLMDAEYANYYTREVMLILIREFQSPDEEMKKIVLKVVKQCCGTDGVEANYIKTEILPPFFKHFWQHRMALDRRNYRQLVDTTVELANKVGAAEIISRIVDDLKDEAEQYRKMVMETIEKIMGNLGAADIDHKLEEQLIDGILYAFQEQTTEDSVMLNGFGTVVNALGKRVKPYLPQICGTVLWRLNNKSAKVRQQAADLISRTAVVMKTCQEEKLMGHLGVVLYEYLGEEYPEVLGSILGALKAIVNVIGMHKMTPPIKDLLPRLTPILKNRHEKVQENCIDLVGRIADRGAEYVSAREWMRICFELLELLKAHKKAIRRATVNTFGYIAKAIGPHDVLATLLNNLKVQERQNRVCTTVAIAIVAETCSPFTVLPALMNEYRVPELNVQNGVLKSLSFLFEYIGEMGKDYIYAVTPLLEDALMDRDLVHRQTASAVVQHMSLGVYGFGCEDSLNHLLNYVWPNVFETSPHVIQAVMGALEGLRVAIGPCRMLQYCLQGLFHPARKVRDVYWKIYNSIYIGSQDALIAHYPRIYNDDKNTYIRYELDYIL
Sequence of Splicing factor 3B subunit 1 / PHD finger-like domain-containing protein 5A (Q7RTV0 2-110 limits assumed): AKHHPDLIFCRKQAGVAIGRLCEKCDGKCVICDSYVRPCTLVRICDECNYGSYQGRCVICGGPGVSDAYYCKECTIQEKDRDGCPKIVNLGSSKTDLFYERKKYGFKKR

In the case of `CCNC(=O)O[C@H]1/C=C/[C@H](C)[C@@H](/C(C)=C/C=C/[C@@H](C)C[C@H]2O[C@@H]2[C@H](C)[C@@H](O)CC)OC(=O)C[C@H](O)CC[C@@]1(C)O` [CID16202133], the EC50 in experiment [1] was determined as 6.1 nM; in experiment [2] it was 4.9 nM.
For `CC[C@H](O)[C@@H](C)[C@H]1O[C@@H]1C[C@@](C)(O)/C=C/C=C(\C)[C@H]1OC(=O)C[C@H](O)CC[C@@](C)(O)[C@@H](OC(C)=O)/C=C/[C@@H]1C` [(3R,6R,7S,8E,10S,11S,12E,14E,16R,18R,19R,20R,21S)-7-acetoxy-3,6,16,21-tetrahydroxy-6,10,12,16,20-pentamethyl-18,19-epoxytricosa-8,12,14-triene-11-olide] the same measures were 6 nM and 4.3 nM.
On to `CC[C@H](O)[C@@H](C)[C@H]1O[C@@H]1C[C@H](C)/C=C/C=C(\C)[C@H]1OC(=O)C[C@H](O)CC[C@@](C)(O)[C@@H](OC(=O)NCCCC[C@H](NC(=O)c2ccc(C3(C(F)(F)F)N=N3)cc2)C(=O)N(C)CCN(C)C(=O)CCCC[C@H]2SC[C@H]3NC(=O)N[C@H]32)/C=C/[C@@H]1C` [CID1620213], for which the EC50 in experiment [1] worked out at 595 nM.
On to `CC[C@H](O)[C@@H](C)[C@H]1O[C@@H]1C[C@H](C)/C=C/C=C(\C)[C@H]1OC(=O)C[C@H](O)CC[C@@](C)(O)[C@@H](OC(=O)NCCOCCOCCNC(=O)CCCCC2=[N+]3C(=Cc4c(C)cc(C)n4[B-]3(F)F)C=C2)/C=C/[C@@H]1C` [CID16202134], for which the concentration giving a half-maximal response (EC50) in experiment [1] was 70.2 nM; in experiment [2] it was 78.4 nM and 645 nM.

The term EC50 denotes the midpoint of the concentration-response curve.
